Measured values from PMC6389425 (Journal of molecular biology, 2019).
Residue numbers refer to the chain shown, from its start.

Assays:
[1] = target: T1, Rh2GUS (Roseburia hominis, UniProt Z9OYF2D7T4, Y182A); test: fluorescence of 4-methylumbelliferone release, initial rates; type: biochemical; settings: pH 6.5 HEPES or pH 5.5 acetate; no FMN added
T1 sequence (Z9OYF2D7T4 24-780 Y182A): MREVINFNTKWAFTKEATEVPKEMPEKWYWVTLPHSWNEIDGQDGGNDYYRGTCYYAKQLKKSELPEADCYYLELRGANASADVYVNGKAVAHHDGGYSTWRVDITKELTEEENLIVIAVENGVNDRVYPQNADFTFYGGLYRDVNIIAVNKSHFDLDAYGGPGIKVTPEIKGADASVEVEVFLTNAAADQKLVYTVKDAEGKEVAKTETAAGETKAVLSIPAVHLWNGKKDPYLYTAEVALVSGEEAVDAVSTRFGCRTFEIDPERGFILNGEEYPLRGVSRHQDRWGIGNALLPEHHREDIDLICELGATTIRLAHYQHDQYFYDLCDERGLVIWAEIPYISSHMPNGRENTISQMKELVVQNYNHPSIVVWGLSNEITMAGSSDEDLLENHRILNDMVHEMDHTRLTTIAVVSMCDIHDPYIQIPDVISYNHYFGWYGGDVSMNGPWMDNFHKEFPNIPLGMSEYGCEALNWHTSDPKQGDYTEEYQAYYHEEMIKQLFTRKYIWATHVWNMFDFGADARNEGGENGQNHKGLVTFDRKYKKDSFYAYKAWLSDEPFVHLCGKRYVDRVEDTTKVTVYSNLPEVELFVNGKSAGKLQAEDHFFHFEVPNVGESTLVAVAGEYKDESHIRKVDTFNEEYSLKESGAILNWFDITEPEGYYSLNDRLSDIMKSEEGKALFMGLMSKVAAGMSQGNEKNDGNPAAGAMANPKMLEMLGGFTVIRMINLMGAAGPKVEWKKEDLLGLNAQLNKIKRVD

[2] = target: T2, Rh2GUS (Roseburia hominis, UniProt Z9OYF2D7T4); test: as above; type: biochemical; settings: pH 6.5 HEPES or pH 5.5 acetate; FMN added (5 μL of 25 μM in 50 μL)
T2 sequence (Z9OYF2D7T4 24-780): T1 sequence (Z9OYF2D7T4 24-780 Y182A) with A159Y

[3] = target: T3, RiGUS (Roseburia inulinivorans, UniProt Z9MQZ9NYJ7); test: as above; type: biochemical; settings: pH 6.5 HEPES or pH 5.5 acetate; FMN added (5 μL of 25 μM in 50 μL)
T3 sequence (Z9MQZ9NYJ7 1-736): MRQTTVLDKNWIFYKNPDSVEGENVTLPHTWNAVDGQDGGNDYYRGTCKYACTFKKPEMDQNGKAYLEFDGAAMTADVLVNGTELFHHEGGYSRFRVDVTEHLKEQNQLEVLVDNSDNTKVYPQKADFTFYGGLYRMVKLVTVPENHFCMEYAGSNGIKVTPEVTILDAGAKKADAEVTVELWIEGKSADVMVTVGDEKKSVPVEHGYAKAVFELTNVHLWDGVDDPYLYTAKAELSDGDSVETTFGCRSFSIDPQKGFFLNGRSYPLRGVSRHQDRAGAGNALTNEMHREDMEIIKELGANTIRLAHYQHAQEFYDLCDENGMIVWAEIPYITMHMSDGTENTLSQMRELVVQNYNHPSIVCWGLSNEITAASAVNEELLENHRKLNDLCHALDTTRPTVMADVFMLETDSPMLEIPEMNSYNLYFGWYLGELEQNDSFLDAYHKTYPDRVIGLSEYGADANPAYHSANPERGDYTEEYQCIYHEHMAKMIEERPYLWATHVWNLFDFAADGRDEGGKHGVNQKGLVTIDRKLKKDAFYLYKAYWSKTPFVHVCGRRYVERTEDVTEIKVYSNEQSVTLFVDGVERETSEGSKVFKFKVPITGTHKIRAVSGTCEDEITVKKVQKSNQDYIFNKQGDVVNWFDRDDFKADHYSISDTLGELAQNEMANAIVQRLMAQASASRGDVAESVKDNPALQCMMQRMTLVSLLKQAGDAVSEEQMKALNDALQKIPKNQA

[4] = target: T4, Fp2GUS (Faecalibacterium prausnitzii, UniProt D4K3H3); test: as above; type: biochemical; settings: pH 6.5 HEPES or pH 5.5 acetate; FMN added (5 μL of 25 μM in 50 μL)
T4 sequence (D4K3H3 1-746): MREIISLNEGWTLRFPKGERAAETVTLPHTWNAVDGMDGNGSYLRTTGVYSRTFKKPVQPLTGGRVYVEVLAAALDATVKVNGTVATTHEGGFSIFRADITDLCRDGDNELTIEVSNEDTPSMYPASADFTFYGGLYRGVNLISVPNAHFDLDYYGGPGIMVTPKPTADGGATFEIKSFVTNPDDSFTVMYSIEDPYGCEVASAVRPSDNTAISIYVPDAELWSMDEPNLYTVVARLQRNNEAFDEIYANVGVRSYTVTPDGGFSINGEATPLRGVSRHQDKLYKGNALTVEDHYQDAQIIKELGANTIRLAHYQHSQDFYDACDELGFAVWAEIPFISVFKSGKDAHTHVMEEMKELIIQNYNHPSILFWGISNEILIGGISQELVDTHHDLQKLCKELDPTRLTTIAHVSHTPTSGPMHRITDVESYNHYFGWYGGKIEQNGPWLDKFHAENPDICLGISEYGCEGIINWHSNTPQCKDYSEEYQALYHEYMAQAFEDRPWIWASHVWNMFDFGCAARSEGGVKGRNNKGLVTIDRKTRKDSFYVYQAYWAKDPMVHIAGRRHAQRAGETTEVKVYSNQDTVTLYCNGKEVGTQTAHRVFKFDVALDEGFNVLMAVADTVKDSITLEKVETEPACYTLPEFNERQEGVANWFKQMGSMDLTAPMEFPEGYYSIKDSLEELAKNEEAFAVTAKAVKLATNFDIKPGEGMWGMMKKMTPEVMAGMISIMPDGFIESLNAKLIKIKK

[5] = target: T5, Rg3GUS (Mediterraneibacter gnavus, UniProt Z9EEQ2OTY4); test: as above; type: biochemical; settings: pH 6.5 HEPES or pH 5.5 acetate; FMN added (5 μL of 25 μM in 50 μL)
T5 sequence (Z9EEQ2OTY4 24-777): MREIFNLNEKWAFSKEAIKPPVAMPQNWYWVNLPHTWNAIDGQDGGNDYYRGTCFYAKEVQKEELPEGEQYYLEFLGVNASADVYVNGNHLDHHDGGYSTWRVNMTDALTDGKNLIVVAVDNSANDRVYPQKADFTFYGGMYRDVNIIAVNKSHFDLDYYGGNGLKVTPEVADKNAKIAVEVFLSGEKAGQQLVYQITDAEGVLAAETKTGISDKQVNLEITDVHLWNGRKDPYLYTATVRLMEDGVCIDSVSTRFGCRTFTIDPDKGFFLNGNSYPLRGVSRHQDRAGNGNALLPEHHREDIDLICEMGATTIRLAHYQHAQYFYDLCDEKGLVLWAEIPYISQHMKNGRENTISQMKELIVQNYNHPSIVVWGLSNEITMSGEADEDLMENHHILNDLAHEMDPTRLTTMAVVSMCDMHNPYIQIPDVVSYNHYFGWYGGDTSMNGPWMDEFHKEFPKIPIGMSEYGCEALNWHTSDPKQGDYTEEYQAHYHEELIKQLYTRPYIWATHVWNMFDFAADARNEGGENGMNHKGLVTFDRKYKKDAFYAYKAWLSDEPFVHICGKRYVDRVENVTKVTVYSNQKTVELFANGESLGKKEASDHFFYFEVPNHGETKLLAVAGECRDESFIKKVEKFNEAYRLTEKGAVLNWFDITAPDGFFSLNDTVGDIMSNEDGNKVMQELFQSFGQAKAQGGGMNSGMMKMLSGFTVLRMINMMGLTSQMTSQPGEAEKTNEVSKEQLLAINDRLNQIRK

[6] = target: T4, Fp2GUS; test: isothermal titration calorimetry; type: binding
[7] = target: BvGUS; test: isothermal titration calorimetry; type: binding, Butyrivibrio fibrisolvens; settings: 25 °C; 20 mM HEPES, 50 mM NaCl, pH 7.4

Kd [6] [µM] | Kd [7] [µM] | SMILES | KM [1] | KM [2] | KM [3] | KM [4] | KM [5]
 |  | Cc1cc(=O)oc2cc(O[C@@H]3O[C@H](C(=O)O)[C@@H](O)[C@H](O)[C@H]3O)ccc12 [4-MUG] | FMN-binding mutants of Rh2GUS, Rg3GUS, and BvGUS all display significantly higher KM values than WT | Each GUS was able to hydrolyze the fluorescent reporter substrate 4-methylumbelliferyl glucuronide (4-MUG) | Each GUS was able to hydrolyze the fluorescent reporter substrate 4-methylumbelliferyl glucuronide (4-MUG) | Each GUS was able to hydrolyze the fluorescent reporter substrate 4-methylumbelliferyl glucuronide (4-MUG) | Each GUS was able to hydrolyze the fluorescent reporter substrate 4-methylumbelliferyl glucuronide (4-MUG)
1.05 ± 0.06 | 1.27 | Cc1cc2nc3c(=O)[nH]c(=O)nc-3n(C[C@H](O)[C@H](O)[C@H](O)COP(=O)(O)O)c2cc1C [FMN] |  |  |  |  | 
